Assay [1] deals with T1, Protein RecA (Mycobacterium tuberculosis, UniProt P9WHJ3).
T1 sequence (P9WHJ3 whole entry): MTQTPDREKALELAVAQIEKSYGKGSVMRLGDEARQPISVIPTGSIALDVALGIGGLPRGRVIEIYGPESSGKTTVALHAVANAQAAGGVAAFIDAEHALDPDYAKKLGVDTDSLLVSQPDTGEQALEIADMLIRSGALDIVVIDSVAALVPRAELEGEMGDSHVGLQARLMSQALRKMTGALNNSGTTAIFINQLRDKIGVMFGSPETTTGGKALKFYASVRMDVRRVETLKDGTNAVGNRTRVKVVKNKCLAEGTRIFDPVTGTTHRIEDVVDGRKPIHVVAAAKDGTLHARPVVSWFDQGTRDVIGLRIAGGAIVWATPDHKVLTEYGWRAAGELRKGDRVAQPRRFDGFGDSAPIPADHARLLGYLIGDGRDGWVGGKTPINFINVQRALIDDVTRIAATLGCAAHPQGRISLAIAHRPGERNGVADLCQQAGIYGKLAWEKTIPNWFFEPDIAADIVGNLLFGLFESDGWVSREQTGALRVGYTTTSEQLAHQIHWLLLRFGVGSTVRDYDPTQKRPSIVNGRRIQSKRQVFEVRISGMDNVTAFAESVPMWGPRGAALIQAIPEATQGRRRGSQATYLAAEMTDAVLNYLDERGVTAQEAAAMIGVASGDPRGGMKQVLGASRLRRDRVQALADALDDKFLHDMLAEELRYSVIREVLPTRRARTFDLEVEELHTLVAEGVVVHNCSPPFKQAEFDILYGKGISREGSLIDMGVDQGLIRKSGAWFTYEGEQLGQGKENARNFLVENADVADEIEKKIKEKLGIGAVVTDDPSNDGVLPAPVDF
Nature of the assay: Fluorescence Cell-Free Homogeneous Dose Retest to Identify Inhibitors of RecA-Intein Splicing Activity. [Related pubchem assays (depositor defined):AID2097, AID2223, AID489010, AID492950]. Format: functional.

Assay [2] concerns the target Glucose-6-phosphate 1-dehydrogenase (Homo sapiens, UniProt P11413). Nature of the assay: inhibition of Homo sapiens G6PD, dose series – biochemical, fluorescence, selectivity assay for P. falciparum G6PD inhibitor project, dose response (AID 504792). Format: functional.
Assay [3] has as its target T2, Aminopeptidase N (Plasmodium falciparum FcB1/Columbia, UniProt O96935).
T2 sequence (O96935 whole entry): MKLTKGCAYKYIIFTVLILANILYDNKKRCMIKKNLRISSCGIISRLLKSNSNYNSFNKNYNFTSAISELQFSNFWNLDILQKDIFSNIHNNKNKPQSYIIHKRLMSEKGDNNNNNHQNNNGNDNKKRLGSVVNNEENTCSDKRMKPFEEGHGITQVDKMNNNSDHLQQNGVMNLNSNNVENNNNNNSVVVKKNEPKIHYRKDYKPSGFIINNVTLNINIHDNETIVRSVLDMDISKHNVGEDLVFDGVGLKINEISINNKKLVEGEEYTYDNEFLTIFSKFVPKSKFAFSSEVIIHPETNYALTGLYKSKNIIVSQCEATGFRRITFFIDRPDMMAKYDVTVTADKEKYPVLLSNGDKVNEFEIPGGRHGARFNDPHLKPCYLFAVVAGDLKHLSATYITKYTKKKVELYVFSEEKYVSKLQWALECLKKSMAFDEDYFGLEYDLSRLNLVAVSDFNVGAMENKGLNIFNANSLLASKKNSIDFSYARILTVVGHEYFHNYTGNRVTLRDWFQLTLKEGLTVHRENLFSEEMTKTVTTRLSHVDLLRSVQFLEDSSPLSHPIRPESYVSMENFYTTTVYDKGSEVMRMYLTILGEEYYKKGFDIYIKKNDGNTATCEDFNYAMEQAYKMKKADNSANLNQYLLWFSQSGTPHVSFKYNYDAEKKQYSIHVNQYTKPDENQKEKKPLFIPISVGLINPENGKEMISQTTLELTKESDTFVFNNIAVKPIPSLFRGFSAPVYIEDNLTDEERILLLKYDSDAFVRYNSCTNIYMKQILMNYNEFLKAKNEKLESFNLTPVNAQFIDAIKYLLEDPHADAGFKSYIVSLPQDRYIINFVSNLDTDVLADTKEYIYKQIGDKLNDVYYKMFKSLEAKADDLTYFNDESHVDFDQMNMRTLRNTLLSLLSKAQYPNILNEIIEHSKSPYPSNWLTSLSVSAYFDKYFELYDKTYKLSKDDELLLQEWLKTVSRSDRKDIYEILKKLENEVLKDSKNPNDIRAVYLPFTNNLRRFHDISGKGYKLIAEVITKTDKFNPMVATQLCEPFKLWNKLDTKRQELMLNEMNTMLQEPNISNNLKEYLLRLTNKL
Briefly: malaria alanyl aminopeptidase activity blockers – biochemical, fluorogenic H-Leu-NHMec substrate, 1536-well (AID 1445). Also on record: species or system Plasmodium falciparum 3D7, 3D7.

In assay [4] the target is T3, Zinc finger protein mex-5 (Caenorhabditis elegans, UniProt Q9XUB2).
T3 sequence (Q9XUB2 whole entry): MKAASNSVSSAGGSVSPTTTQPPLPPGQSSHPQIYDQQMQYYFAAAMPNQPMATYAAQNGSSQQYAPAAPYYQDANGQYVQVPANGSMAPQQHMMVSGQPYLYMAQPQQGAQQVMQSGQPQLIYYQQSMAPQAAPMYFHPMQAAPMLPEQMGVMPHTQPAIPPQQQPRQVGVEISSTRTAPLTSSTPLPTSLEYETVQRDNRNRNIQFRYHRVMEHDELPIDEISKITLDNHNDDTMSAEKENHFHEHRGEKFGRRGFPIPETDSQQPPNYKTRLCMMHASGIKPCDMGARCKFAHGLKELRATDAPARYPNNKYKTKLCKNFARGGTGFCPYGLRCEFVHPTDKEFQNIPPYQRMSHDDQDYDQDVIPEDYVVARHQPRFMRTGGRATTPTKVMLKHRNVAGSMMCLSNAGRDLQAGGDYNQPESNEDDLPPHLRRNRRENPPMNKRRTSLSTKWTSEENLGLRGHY
Briefly: potency of MEX-5 RNA-binding blockers – biochemical, C. elegans, fluorescence polarization, dose response (AID 1960). Background: In fluorescence polarisation assays a small probe gives low polarisation when free and higher when bound to something large.

The target of assay [5] is T4, Voltage-gated N-type calcium channel alpha-1B subunit/Amyloid beta A4 precursor protein-binding family A member 1 (Homo sapiens, UniProt Q00975+Q02410). Type of assay: protein assay.
T4 sequence (Q00975 whole entry): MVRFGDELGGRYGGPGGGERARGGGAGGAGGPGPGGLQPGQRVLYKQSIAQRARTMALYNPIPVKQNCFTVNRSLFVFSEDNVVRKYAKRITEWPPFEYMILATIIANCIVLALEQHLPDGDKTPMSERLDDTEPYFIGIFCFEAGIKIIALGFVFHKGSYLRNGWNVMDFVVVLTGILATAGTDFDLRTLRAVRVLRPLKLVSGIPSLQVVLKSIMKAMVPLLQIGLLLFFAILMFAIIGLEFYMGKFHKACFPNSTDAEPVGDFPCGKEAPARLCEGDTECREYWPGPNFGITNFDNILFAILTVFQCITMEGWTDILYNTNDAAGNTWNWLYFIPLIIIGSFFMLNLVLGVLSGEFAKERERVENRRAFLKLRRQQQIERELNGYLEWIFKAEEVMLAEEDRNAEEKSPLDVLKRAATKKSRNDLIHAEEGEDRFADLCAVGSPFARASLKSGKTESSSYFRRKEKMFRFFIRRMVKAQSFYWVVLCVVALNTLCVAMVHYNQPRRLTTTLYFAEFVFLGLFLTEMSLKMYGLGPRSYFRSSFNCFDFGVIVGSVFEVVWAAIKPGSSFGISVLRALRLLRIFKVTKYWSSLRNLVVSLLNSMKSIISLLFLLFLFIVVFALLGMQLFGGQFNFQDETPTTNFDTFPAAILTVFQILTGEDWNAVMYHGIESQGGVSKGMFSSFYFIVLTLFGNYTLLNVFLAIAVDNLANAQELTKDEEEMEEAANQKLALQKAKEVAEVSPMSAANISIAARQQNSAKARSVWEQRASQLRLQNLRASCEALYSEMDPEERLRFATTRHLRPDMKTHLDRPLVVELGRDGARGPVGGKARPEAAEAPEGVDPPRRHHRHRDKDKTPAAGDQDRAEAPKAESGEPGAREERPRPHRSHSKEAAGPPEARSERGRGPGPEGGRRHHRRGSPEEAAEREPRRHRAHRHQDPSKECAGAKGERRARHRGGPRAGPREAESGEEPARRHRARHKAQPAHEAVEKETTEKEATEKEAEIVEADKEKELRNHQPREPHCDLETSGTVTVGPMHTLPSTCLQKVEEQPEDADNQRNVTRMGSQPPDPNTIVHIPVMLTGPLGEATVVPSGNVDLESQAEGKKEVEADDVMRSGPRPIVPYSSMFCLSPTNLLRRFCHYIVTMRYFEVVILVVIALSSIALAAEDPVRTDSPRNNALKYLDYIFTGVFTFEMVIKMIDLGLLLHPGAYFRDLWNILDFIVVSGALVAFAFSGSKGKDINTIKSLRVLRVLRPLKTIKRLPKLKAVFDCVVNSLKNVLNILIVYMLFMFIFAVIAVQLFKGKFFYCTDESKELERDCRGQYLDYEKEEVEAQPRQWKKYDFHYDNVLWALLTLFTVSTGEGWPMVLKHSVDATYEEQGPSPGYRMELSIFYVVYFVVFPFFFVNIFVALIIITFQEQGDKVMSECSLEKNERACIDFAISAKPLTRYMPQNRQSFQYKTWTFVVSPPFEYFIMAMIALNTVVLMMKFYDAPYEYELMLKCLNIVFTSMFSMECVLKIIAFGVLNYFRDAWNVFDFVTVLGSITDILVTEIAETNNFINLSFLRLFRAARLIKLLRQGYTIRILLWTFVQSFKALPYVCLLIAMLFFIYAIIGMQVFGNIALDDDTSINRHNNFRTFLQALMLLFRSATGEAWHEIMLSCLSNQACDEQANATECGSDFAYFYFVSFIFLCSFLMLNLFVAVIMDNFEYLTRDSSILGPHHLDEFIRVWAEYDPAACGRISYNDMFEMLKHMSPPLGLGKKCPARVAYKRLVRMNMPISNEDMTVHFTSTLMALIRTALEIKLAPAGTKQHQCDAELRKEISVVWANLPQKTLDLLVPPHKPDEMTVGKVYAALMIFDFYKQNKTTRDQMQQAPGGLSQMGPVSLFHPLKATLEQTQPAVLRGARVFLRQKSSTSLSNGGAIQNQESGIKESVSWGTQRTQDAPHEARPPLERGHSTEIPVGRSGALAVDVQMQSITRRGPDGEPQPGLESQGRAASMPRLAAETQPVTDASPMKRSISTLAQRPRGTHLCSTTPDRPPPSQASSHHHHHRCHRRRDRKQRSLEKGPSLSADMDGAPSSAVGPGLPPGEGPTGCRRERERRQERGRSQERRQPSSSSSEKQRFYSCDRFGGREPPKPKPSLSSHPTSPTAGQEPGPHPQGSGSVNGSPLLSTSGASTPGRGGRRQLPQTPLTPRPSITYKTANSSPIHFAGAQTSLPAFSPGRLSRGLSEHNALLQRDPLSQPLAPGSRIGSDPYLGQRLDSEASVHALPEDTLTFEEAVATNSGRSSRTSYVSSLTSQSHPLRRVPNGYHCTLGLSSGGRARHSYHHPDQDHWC
T4 sequence (Q02410 whole entry): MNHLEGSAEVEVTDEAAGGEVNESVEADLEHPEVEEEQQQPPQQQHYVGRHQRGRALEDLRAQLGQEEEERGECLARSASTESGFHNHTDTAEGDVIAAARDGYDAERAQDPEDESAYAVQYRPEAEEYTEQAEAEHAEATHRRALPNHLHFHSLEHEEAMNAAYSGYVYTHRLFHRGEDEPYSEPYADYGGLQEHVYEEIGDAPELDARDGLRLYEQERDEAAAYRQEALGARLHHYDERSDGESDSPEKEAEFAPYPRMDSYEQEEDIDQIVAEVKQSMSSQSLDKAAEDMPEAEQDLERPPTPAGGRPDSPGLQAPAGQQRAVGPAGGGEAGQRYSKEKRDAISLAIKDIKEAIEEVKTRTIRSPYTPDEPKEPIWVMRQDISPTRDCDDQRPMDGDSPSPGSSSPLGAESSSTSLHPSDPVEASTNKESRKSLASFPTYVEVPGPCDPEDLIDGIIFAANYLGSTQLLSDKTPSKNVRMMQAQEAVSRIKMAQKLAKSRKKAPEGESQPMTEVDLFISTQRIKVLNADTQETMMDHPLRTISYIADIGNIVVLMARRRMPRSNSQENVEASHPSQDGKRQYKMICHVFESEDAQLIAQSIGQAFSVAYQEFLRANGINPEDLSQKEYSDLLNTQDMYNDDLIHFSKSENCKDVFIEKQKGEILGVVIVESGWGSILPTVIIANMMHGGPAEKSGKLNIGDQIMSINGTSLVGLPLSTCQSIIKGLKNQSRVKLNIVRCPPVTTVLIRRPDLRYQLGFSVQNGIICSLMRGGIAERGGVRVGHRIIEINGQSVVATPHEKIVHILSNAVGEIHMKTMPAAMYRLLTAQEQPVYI
The target of assay [6] is T5, RNA-binding protein pos-1 (Caenorhabditis elegans, UniProt G5EF15).
T5 sequence (G5EF15 whole entry): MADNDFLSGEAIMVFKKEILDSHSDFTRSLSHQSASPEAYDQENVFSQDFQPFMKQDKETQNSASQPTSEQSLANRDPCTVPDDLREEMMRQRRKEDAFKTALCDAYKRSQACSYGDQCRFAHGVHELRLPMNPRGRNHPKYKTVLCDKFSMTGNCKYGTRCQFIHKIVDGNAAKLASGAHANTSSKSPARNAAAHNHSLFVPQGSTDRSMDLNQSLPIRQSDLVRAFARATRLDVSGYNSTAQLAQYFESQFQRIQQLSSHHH
Briefly: disruptors of C. elegans POS-1 RNA interaction – biochemical, fluorescence polarization, dose response (AID 1964).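 Further: purified POS-1 fused to maltose binding protein made in E. coli; potency of compounds blocking POS-1 binding to fluorescent RNA.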

The target of assay [7] is Large T antigen (Simian virus 40, UniProt P03070). Type of assay: functional, Betapolyomavirus macacae.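 Further: Confirmatory-stage PubChem screen for compounds that inhibit SV40 T antigen.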
Assay [8] addresses T4, Voltage-gated N-type calcium channel alpha-1B subunit/Amyloid beta A4 precursor protein-binding family A member 1. Format: protein assay. This is another data set of the same source.
Assay [9] is described as follows: HEK-293T cell viability reduction – luminescence, B-cell screen hits, cytotoxicity control for BCR NF-kB inhibitor project, dose response (AID 489021).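 Further: HEK-293T cells carrying an NF-kB luciferase reporter; cells exposed to compound for about 14 hours before viability readout.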 Format: functional, cell-based.
For assay [10], the system named is H9c2. Briefly: cells. Format: functional, cell-based. The note with it: Rattus norvegicus, H9c2, Myocardium.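 Further: confirmatory concentration-response retest of ultra-high-throughput screening hits for modulation of myocardial damage; cell death induced by hydrogen peroxide oxidative stress; compound pretreatment for 60 min then peroxide exposure for 2 h; potency is for protecting the cells against peroxide damage rather than for killing them.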
In assay [11] the target is DNA dC->dU-editing enzyme APOBEC-3G (Homo sapiens, UniProt Q9HC16). Nature of the assay: Dose Response confirmation of small molecule APOBEC3G DNA Deaminase Inhibitors via a fluorescence-based single-stranded DNA deaminase assay. [Related pubchem assays (depositor defined):AID493012, AID493028]. Format: functional.
Sequence of DNA dC->dU-editing enzyme APOBEC-3G (Q9HC16 whole entry, the tested form may be a part): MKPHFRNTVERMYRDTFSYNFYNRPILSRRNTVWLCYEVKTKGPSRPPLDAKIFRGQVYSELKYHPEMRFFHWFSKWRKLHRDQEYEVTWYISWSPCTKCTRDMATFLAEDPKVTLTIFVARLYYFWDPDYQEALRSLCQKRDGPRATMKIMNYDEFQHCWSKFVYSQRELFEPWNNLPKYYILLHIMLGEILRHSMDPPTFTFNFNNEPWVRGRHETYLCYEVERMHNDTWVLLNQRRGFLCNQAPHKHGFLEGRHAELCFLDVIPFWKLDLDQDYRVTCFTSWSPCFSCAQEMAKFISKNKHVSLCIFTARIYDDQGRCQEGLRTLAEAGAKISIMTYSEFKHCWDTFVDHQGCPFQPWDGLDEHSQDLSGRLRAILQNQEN
Assay [12] deals with Nucleotide-binding oligomerization domain-containing protein 2 (Homo sapiens, UniProt Q9HC29). Briefly: inhibition of NOD2-driven NF-kB reporter – cell-based, luminescence, uHTS, HEK293 (AID 1566). Format: functional.
Sequence of Nucleotide-binding oligomerization domain-containing protein 2 (Q9HC29 whole entry, the tested form may be a part): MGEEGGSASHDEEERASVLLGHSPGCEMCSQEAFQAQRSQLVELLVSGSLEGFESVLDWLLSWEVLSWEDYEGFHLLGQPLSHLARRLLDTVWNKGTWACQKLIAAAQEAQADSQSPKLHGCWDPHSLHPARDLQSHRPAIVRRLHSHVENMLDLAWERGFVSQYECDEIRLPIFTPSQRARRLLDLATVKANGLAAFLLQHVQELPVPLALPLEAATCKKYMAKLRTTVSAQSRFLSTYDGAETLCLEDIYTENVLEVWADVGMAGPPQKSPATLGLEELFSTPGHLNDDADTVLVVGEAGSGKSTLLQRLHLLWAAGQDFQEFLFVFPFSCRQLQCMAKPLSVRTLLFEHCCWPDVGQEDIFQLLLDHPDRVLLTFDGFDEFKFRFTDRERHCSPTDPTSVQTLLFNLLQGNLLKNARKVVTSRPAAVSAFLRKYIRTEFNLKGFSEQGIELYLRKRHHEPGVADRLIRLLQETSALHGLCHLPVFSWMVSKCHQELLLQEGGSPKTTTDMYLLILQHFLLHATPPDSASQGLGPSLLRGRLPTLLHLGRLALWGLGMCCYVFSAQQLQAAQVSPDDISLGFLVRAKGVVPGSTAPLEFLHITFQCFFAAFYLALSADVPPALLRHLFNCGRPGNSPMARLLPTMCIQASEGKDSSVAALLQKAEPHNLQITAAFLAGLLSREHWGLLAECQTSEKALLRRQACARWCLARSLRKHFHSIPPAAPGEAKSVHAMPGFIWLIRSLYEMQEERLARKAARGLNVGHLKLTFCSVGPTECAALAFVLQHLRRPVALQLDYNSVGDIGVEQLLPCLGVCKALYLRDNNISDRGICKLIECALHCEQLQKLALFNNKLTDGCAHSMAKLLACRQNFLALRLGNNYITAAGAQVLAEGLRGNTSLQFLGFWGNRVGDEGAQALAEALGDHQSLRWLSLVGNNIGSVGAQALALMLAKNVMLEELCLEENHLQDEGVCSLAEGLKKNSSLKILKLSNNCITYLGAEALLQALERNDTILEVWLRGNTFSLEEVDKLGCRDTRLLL
Assay [13] has as its system HEK293. Briefly: cells. Type of assay: functional, cell-based. Particulars: Homo sapiens.
For assay [14], the system named is HEK293. Briefly: NOD2 signaling inhibitors in MDP-stimulated cells, cell-based, uHTS, luminescence (AID 2001). Type of assay: functional. The note with it: Homo sapiens.
Assay [15] has as its system HEK293. Briefly: cells. Format: functional, cell-based. The note with it: Homo sapiens. The source holds these as a separate data set.
Assay [16] has as its system HEK293. Briefly: cells. Format: functional, cell-based. Particulars: Homo sapiens. The source holds these as a separate data set.
The subject of assay [17] is HEK293. Nature of the assay: inhibition of NOD1-driven NF-kB reporter – cell-based, luminescence, uHTS, primary screen (AID 1578). Format: functional. Particulars: Homo sapiens.
A short description of assay [18]: cells. Format: functional.
Assay [19] is described as follows: reduction of Shn3 3'UTR-driven luciferase in osteoblasts – cell-based, Clone20 osteoblasts, firefly luciferase, cherry-picked, dose response (AID 624132).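 Further: firefly luciferase luminescence from reporter carrying the Shn3 3'UTR in osteoblasts.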 Format: functional.

The source of these data is ChEMBL document CHEMBL1201862, “PubChem BioAssay data set” (2004).

Calls of active or inactive are those of the source.

What is called EC50 is the concentration needed to bring the measured effect to its halfway point. In general, IC50 refers to the midpoint of a concentration-inhibition curve. Broadly, the AC50 is the midpoint of the concentration-response curve, whichever way the signal moves.

Sequence of Glucose-6-phosphate 1-dehydrogenase (P11413 whole entry): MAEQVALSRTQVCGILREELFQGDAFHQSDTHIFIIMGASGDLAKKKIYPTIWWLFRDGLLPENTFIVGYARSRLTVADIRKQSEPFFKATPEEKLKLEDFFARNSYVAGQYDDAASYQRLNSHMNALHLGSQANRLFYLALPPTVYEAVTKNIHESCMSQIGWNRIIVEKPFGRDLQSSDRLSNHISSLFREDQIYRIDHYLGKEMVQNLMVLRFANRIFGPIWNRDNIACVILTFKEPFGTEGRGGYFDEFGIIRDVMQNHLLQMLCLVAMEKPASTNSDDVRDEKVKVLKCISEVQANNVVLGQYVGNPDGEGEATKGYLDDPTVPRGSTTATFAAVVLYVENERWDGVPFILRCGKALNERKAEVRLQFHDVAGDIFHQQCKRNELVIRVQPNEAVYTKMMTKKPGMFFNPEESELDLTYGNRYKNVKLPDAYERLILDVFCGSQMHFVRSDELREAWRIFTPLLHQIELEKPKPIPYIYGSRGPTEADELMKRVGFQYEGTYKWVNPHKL

Regarding `COc1c(O)ccc2c1CN1CCc3cc4c(cc3C1C2)OCO4` (stereo unspecified), the EC50 in assay [1] is 14 µM (active). Besides, in assay [2], the IC50 was > 80 µM (inactive).
`NS(=O)(=O)c1ccc(CCNC(=O)CCCn2c(SCC(=O)N3CCCC3)nc3ccsc3c2=O)cc1`: in assay [3], the IC50 is 97.7 µM (active).
With `COC/C=C/C1=CC2=CC(=O)C(C)(OC(=O)CCC(=O)OC)C(=O)C2=CO1` (stereo unspecified), the 50% effective concentration (EC50) in assay [4] is 17 µM (active); in assay [6] it was 22.1 µM (active). In addition, the IC50 in assay [5] was 7.43 µM (active); in assay [7], > 100 µM (active); in assay [8], > 56.8 µM (not active).
As to `COc1ccc(-c2nsc(SCC(=O)Nc3cc(C)on3)n2)cc1`, the IC50 in assay [9] is > 80 µM (inactive).
With `COC(=O)c1cc(NC(=O)Nc2cc(OC)ccc2OC)cc(C(=O)OC)c1`, the values for the IC50 in assay [9] and in assay [10] were > 80 µM (inactive) and 16.3 µM (active), respectively.
Regarding `O=C(CNC(=O)c1cccs1)NCC(=O)OCC(=O)c1ccc([N+](=O)[O-])cc1`, the IC50 in assay [2] is > 80 µM (inactive).
As for `Cn1c(=O)cc(OCCCC(=O)NC2CCCC2)c2ccccc21`, the IC50 in [9] is > 80 µM (inactive).
Regarding `O=C1CC(Sc2nc[nH]n2)C(=O)N1c1ccccc1` (stereo unspecified), the IC50 in [11] is 55.7 µM (active).
Turning to `COc1cccc(OCCOc2ccc(/C=C3/SC(=S)NC3=O)cc2)c1`, the EC50 is 9.33 µM (active) in assay [12] and 4.27 µM (active) in assay [17]. Also, the IC50 in assay [13] was 16.5 µM (active); in [14], 6.67 µM (inactive); in [15], > 20 µM (inactive); in assay [16] it was 6.04 µM (active).
As for `Cc1cc(-c2cc(C(=O)NCc3ccccc3)on2)nc(S(C)(=O)=O)n1`, the IC50 in assay [9] is > 80 µM (inactive).
For the molecule `COC(=O)CCC(=O)Nc1sc(C)c(C)c1C(N)=O`, in [11], the IC50 is 38.2 µM (active).
For `NC(=O)c1ccc(Oc2ccc3ccc(=O)oc3c2)c([N+](=O)[O-])c1`, the IC50 in [3] is 42.5 µM (active).
Regarding `COCCn1c(C)cc(C(=O)CSc2ncnc3sc4c(c23)CCC4)c1C`, the EC50 was 8.39 µM (active) in assay [12] and 10.7 µM (active) in assay [17]. Also, the IC50 in assay [13] was 19.4 µM (active); in assay [14], 18.6 µM (inactive); in assay [15] it was > 20 µM (inactive); in assay [16], 15 µM (active).
Consider `O=C(CSc1nc2ccsc2c(=O)n1NC(=O)c1ccccc1)Nc1nccs1`, for which the IC50 in assay [3] was 37.4 µM (active).
In the case of `O=C(CNC(=O)c1ccc(Br)cc1)NCC(=O)OCC(=O)c1ccc([N+](=O)[O-])cc1`, the IC50 in assay [2] was > 80 µM (inactive).
Take `O=C(Oc1ccc(F)cc1)c1ccc2c(=O)n3c(nc2c1)CCC3`: the IC50 in assay [18] is 3.88 µM (active).
As for `Cc1cccc(NC(=O)COC(=O)CCc2c[nH]c3ccccc23)c1C`, the IC50 in [18] was 2.82 µM (active).
As for `CCOC(=O)c1c(C)[nH]c(C(=O)COC(=O)[C@H](C)N2C(=O)C3CCCCC3C2=O)c1C` (stereo partly specified), in assay [19], the concentration at half-maximal activity (AC50) is 46.8 µM (active).
Regarding `CCOCCCn1/c(=N/C(=O)c2cccnc2)c(C(=O)OCC)cc2c(=O)n3ccccc3nc21`, the IC50 in assay [11] is 41.3 µM (active).
As for `O=C(Oc1cccc(/C=N/Nc2nc(N3CCOCC3)nc(N3CCOCC3)n2)c1)c1ccco1`, the IC50 in assay [9] is > 80 µM (inactive).
